One block for each compound: values may come before it.
Key:
[1] = target: Sonic hedgehog protein (Mus musculus) (UniProt Q62226); experiment: Inhibition of sonic hedgehog pathway in mouse NIH-3T3 cells relative to control; assay type: cell-based; settings: NIH3T3
[2] = Inhibition of HIV protease; set-up: species or system Human immunodeficiency virus
[3] = test system: MCF7; experiment: cells; settings: Homo sapiens
Description: Antiproliferative activity against human MCF7 cells

[4] = Inhibition of GGTase
[5] = Inhibition of FTase
[6] = target: Beta-secretase 1 (Homo sapiens, UniProt P56817); experiment: Inhibition of BACE1
Beta-secretase 1, sequence (P56817 whole entry): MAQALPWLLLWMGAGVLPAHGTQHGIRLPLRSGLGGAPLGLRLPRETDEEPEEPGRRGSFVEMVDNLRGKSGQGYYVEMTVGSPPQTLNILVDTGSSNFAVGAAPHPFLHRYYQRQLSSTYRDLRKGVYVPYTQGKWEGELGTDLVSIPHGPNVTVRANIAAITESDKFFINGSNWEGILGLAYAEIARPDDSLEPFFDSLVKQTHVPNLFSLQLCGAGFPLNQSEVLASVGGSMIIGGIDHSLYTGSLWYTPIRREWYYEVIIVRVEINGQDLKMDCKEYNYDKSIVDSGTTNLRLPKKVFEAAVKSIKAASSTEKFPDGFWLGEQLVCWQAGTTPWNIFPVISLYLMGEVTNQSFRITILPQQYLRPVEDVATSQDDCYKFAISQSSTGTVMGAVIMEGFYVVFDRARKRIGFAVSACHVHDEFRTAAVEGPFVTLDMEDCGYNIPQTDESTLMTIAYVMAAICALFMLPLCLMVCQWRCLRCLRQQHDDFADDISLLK

[7] = target: T1, Renin (Homo sapiens, UniProt P00797); experiment: Inhibition of renin
T1 sequence (P00797 whole entry): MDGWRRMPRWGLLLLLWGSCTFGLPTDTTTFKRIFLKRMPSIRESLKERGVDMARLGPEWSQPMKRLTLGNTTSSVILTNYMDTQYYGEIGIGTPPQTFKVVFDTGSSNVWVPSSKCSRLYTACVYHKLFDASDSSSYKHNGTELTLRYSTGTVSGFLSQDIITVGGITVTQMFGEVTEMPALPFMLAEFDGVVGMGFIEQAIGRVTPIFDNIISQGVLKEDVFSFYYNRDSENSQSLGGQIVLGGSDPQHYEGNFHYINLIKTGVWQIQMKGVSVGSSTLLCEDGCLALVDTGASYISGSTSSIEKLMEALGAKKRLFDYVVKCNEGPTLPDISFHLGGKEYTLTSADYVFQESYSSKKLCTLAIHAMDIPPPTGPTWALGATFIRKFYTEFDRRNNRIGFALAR

[8] = test system: Hepatitis C virus; experiment: microbe, parasite or virus in culture
Description: Antiviral activity against HCV by cell based replicon assay

[9] = Inhibition of HCV NS3 protease; set-up: species or system Hepacivirus hominis
[10] = target: Growth hormone secretagogue receptor type 1 (Homo sapiens, UniProt Q92847); experiment: Agonist activity at ghrelin receptor; assay type: functional
Growth hormone secretagogue receptor type 1, sequence (Q92847 whole entry): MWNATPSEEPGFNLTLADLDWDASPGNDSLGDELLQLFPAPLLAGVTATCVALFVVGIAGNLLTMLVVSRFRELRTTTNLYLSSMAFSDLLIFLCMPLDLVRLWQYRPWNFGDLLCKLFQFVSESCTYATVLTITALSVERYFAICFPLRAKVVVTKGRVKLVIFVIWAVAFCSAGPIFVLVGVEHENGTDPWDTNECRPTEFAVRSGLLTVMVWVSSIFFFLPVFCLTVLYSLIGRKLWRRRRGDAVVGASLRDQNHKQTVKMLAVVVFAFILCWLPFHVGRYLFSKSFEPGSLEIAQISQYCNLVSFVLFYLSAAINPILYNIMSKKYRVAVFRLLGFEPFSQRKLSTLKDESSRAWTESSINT

[11] = target: Prothrombin (Homo sapiens, UniProt P00734); experiment: Inhibition of thrombin
[12] = Selectivity ratio of IC50 for tPa to IC50 for thrombin
[13] = Selectivity ratio of IC50 for trypsin to IC50 for thrombin
[14] = Inhibition of HCV 1a NS3 protease; set-up: species or system Hepatitis C virus subtype 1a
[15] = test system: Hepatitis C virus; experiment: Inhibition of HCV 1b NS3 protease; set-up: species or system Hepatitis C virus subtype 1b
[16] = target: Neprilysin (Homo sapiens, UniProt P08473); experiment: Inhibition of neutral endopeptidase
Neprilysin, sequence (P08473 whole entry): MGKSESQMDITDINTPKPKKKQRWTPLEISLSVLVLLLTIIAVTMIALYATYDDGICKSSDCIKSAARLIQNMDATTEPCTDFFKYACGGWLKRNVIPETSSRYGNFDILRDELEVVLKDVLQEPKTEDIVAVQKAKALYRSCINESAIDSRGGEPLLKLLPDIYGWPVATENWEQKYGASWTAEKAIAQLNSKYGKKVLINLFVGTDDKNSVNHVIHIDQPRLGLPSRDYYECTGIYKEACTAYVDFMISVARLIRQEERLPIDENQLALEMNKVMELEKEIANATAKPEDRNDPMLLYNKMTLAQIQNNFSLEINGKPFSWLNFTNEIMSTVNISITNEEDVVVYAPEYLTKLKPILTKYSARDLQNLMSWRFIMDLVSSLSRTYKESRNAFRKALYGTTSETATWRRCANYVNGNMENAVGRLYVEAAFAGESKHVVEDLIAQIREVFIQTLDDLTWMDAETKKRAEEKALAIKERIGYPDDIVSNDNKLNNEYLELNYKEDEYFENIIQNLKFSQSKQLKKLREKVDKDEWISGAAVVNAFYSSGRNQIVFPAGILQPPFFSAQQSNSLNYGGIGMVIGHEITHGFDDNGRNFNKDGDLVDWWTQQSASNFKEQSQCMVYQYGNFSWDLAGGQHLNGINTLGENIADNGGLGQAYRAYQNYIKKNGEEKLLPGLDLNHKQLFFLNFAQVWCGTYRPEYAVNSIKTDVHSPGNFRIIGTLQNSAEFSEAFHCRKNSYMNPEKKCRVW

[17] = target: Angiotensin-converting enzyme (Homo sapiens, UniProt P12821); experiment: Inhibition of ACE
Angiotensin-converting enzyme, sequence (P12821 whole entry): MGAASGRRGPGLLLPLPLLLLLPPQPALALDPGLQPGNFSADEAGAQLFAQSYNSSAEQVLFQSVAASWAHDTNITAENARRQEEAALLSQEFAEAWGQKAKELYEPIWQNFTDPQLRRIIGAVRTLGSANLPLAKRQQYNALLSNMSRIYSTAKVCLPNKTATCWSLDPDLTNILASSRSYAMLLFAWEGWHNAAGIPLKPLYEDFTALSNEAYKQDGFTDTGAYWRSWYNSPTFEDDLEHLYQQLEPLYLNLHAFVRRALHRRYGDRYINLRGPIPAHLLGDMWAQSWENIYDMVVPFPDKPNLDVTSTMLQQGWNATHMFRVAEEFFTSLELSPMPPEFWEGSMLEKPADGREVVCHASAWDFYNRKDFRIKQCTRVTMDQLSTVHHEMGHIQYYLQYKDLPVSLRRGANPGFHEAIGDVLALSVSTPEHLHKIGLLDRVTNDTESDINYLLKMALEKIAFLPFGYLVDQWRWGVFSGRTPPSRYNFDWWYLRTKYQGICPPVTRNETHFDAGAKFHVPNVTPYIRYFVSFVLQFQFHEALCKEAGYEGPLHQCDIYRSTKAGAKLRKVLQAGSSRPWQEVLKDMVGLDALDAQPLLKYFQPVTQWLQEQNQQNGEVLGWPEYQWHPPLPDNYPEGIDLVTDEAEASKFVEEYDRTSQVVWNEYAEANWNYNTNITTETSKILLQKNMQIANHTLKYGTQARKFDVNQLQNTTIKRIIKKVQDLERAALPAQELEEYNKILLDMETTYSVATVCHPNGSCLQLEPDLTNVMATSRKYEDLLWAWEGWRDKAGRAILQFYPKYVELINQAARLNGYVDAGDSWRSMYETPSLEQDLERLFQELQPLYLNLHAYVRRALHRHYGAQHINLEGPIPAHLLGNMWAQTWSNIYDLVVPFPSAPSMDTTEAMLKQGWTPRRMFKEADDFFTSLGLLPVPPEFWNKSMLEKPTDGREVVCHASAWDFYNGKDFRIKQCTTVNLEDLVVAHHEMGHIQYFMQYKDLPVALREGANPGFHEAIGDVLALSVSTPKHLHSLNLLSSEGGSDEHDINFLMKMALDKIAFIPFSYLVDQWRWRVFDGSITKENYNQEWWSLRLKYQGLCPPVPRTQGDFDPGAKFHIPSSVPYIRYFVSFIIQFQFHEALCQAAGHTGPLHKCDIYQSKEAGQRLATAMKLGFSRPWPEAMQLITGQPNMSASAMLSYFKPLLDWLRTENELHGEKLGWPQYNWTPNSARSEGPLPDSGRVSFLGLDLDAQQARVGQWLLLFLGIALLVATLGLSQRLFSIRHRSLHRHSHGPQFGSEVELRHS

[18] = target: Ras-related protein Rap-1A (Homo sapiens, UniProt P62834); experiment: Inhibition of Rap1a
Ras-related protein Rap-1A, sequence (P62834 whole entry): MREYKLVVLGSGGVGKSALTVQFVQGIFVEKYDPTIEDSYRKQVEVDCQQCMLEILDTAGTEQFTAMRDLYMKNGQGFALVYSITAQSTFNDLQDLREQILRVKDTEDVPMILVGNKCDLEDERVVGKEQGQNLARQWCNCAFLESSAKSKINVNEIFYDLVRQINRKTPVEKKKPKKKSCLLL

[19] = target: GTPase KRas (Homo sapiens, UniProt P01116); experiment: Inhibition of Ki-Ras
GTPase KRas, sequence (P01116 whole entry): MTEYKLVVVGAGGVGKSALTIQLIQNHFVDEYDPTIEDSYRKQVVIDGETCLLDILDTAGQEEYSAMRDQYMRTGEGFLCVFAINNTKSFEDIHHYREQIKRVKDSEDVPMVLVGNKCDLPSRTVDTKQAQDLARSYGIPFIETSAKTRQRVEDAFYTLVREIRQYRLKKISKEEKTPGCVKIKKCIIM

[20] = target: DnaJ homolog subfamily A member 1 (Homo sapiens, UniProt P31689); experiment: Inhibition of HDJ2
DnaJ homolog subfamily A member 1, sequence (P31689 whole entry): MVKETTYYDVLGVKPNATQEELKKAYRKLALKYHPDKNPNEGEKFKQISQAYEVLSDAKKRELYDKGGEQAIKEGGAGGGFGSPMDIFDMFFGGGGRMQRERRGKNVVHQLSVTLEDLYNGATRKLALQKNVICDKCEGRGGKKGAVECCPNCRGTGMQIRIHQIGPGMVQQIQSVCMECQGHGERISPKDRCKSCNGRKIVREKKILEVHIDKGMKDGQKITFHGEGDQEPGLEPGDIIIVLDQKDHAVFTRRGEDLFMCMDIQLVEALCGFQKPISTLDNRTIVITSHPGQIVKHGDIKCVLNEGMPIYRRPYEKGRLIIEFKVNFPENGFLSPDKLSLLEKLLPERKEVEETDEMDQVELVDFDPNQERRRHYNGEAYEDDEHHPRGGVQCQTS

[21] = Reversible inhibition of HCV NS3 protease; set-up: species or system Hepacivirus hominis

Compound: CC[C@H](C)[C@@H]1NC(=O)[C@@H](NC[C@H](O)[C@H](Cc2ccccc2)NC(=O)OC(C)(C)C)Cc2ccc(cc2)Oc2ccc(cc2)C[C@@H](C(=O)OC)NC1=O
Ki [2]: 15 nM

Compound: O=S1(=O)NCCCNc2nc(ncc2Br)Nc2cccc1c2
IC50 [3]: 200 nM

Compound: C[C@H]1NCc2cncn2Cc2ccc(C#N)c(c2)Oc2ccc3cccc(c3c2)NC1=O
IC50 [4]: 313 nM | IC50 [5]: 1.3 nM

Compound: CCCN(c1cc(COC(=O)[C@](C)(N)Cc2ccccc2)cc(C(=O)N[C@H](C)c2ccc(F)cc2)c1)S(C)(=O)=O
IC50 [6]: 27 nM

Compound: CC[C@H](C)[C@H](NC(=O)[C@@H](NC[C@@H]1COCCCCCCCN(C(=O)[C@H](Cc2ccccc2)NC(=O)OC(C)(C)C)[C@@H](C)C(=O)N1)C(C)C)C(=O)N[C@@H](Cc1cnc[nH]1)C(=O)OC
IC50 [7]: 2700 nM

Compound: C=C[C@@H]1C[C@]1(NC(=O)[C@@H]1C[C@@H]2CN1C(=O)[C@H](C(C)(C)C)NC(=O)OCCCC/C=C/c1ccc3ccnc(c3c1)O2)C(=O)NS(=O)(=O)C1CC1
IC50 [8]: 8.7 nM | Ki [9]: 0.18 nM

Compound: COc1ccc2c(c1)OCC/C=C\CCCCN(C[C@@H](O)[C@H](Cc1ccccc1)NC(=O)O[C@H]1CO[C@H]3OCC[C@H]31)S2(=O)=O
IC50 [2]: 4.6 nM | Ki [2]: 0.012 nM

Compound: CC[C@H](C)[C@H](NC(=O)[C@@H]1CCCN1C[C@H](O)[C@@H]1Cc2ccc(cc2)OCCCC(=O)N[C@@H](CC(N)=O)C(=O)N1)C(=O)N[C@H](C(N)=O)C(C)C
Ki [2]: 12 nM

Compound: N#Cc1ccc2cc1Oc1ccc(CCC3CCCCC3)c(c1)CN1CCN(CC1=O)Cc1cncn1C2
IC50 [4]: 1.7 nM | EC50 [18]: 140 nM | EC50 [19]: 1060 nM | EC50 [20]: 12 nM | IC50 [5]: 1.6 nM

Compound: COc1ccc2c(c1)OCC/C=C/CCCCN(C[C@@H](O)[C@H](Cc1ccccc1)NC(=O)O[C@H]1CO[C@H]3OCC[C@H]31)S2(=O)=O
IC50 [2]: 7 nM | Ki [2]: 0.06 nM

Compound: CCC[C@H](NC(=O)[C@@H]1[C@H]2CCC[C@H]2CN1C(=O)[C@@H](NC(=O)[C@@H](NC(=O)c1cnccn1)C1CCCCC1)C(C)(C)C)C(=O)C(=O)NC1CC1
Ki [21]: 7 nM | IC50 [8]: 354 nM

More lines, main results first:

Emax [1]: 30%
Compound: C[C@H]1COC(=O)[C@@H](N)CC/C=C/C[C@@H](CC(=O)N(CCO)Cc2ccccc2)C(=O)N1

Ki [2]: 0.6 nM
Compound: CC(C)CCN(C[C@@H](O)[C@@H]1Cc2ccc(cc2)OCCCC(=O)N[C@@H](CC(N)=O)C(=O)N1)S(=O)(=O)c1ccccc1

EC50 [10]: 68 nM
Compound: CCC[C@@H]1NCCOc2ccccc2/C=C/CNC(=O)[C@@H](Cc2ccccc2)NC(=O)CN(C)C1=O

Ki [11]: 0.4 nM | Ratio IC50 [12]: > 2000 | Ratio IC50 [13]: > 2000
Compound: O=C1COc2ccc(Cl)cc2CNC(=O)[C@@H]2CCCN2C(=O)[C@@H](C2CCCCC2)NC(=O)CN1

Ki [11]: 0.4 nM
Compound: O=C1COc2ccc(Cl)cc2CNC(=O)[C@@H]2CCCN2C(=O)[C@@H](C2CCCCC2)NC(=O)CCN1

EC50 [8]: 7 nM | Ki [14]: 1.4 nM
Compound: COc1ccc2c(O[C@@H]3C[C@H]4C(=O)N[C@]5(C(=O)O)C[C@H]5/C=C\CCCCC[C@H](NC(=O)OC(C)(C)C)C(=O)N4C3)cc(-c3ccccc3)nc2c1
Ki [15]: 1 nM

Ki [10]: 6 nM
Compound: CC[C@H](C)[C@@H]1NCCOc2ccccc2CCCNC(=O)[C@@H](Cc2ccccc2)NC(=O)[C@@H](C)N(C)C1=O

IC50 [16]: 0.8 nM
Compound: O=C1N[C@H](C(=O)N2C[C@H](O)C[C@H]2C(=O)O)CCCCCC[C@H]1CS

IC50 [17]: 4 nM | IC50 [16]: 8 nM
Compound: O=C1N[C@H](C(=O)O)CCCCCc2cccc(c2)C[C@H]1CS

IC50 [17]: 8000 nM | IC50 [16]: 3 nM
Compound: O=C1N[C@H](C(=O)O)CCCCCc2ccccc2C[C@H]1CS

Ki [11]: 180 nM
Compound: NC(N)=NCCC[C@@H]1NC(=O)[C@@H]2CCCN2C(=O)[C@@H](NC=O)CNC(=O)/C=C/[C@H](Cc2ccc(O)cc2)NC(=O)[C@@H](Cc2ccccc2)NC(=O)C1=O [CYCLOTHEONAMIDE A]

IC50 [7]: 69000 nM
Compound: CC[C@H](C)[C@H](NC(=O)[C@@H](NC[C@@H]1COCCCCCN(C(=O)[C@H](Cc2ccccc2)NC(=O)OC(C)(C)C)[C@@H](C)C(=O)N1)C(C)C)C(=O)N[C@@H](Cc1cnc[nH]1)C(=O)OC

IC50 [7]: 56 nM
Compound: CC(C)(C)C(=O)NCCOC(=O)N[C@@H](Cc1ccccc1)C(=O)N[C@H]1CCC(=O)NCCOC(=O)[C@H](O)[C@H](CC2CCCCC2)NC1=O
